Each molecule was assayed against glucosylceramide synthase (GCS) (Homo sapiens (Human), UniProt Q16739) (assay: UDP-Glo glucosylceramide synthase biochemical assay). Conditions: endogenous GCS in Golgi preparations from human A375 malignant melanoma skin cells; C6 ceramide and UDP-glucose substrates; 20 h incubation; UDP detected by luminescence.
Description: UDP-Glo™ Glucosylceramide Synthase Biochemical Assay
A UDP-Glo™ glucosylceramide synthase biochemical assay was utilized to evaluate the effect of test compounds on the activity of endogenous levels of GCS enzyme contained within Golgi preparations isolated from human A375 malignant melanoma skin cells. The UDP-Glo™ glucosylceramide synthase assay uses UDP-Glucose as a nucleotide-glycosyl donor and ceramide as substrate acceptor molecules. In the reaction, glucosylceramide synthase (GCS) transfers glucose from UDP-Glucose to ceramide. Glucosylceramide and UDP are released as products.
Using Promega's UDP-Glo™ Glycosyltransferase assay kit (Promega Corporation, Madison, WI, USA (Promega)), GCS activity was indirectly measured by detecting the amount of UDP produced. An aliquot of GCS enzyme (1.5 μg crude golgi preparation, total protein) and titrated test compound were aliquoted to each well and incubated for 30 minutes at room temperature. […] An equivalent volume of substrate mixture was then added to each well. Following a 20 h incubation at room temperature to allow for GCS turnover of substrate, an equal volume of UDP detection reagent (Promega) was added to each well and incubated for an additional 75 minutes at room temperature to simultaneously convert the accumulated UDP product into ATP and generate light in a luciferase reaction. The generated light was detected using a luminometer. […] luminescence values (RLUs) were normalized to mean “min” and “max” effects, as determined on each plate. “Min” was defined as the mean of the values of the wells treated with vehicle (DMSO) and which represent 0% inhibition; “max” was defined as the mean of the values of the wells treated with a reference inhibitor and which represent the 100% effect. Values for % Emax and EC50 were determined by best-fitting the normalized data to a curve in Activity Base along a four-parameter logistic nonlinear regression (4PL) model (based on the Levenberg-Marquardt algorithm and defined by the equation below): […]
where: n is 4PMin (bottom of the curve); m is 4PMax (top of the curve); i is IP (inflection point of curve); and p is slope. See Levenberg, K., “A Method for the Solution of Certain Problems in Least Squares”, Quart. Appl. Math. 2, (1944), pp 164-168 and Marquardt, D., “An Algorithm for Least Squares Estimation on Nonlinear Parameters”, SIAM J. Appl. Math. 11, (1963) pp 431-441.

Chain of glucosylceramide synthase (GCS) (Q16739 whole entry): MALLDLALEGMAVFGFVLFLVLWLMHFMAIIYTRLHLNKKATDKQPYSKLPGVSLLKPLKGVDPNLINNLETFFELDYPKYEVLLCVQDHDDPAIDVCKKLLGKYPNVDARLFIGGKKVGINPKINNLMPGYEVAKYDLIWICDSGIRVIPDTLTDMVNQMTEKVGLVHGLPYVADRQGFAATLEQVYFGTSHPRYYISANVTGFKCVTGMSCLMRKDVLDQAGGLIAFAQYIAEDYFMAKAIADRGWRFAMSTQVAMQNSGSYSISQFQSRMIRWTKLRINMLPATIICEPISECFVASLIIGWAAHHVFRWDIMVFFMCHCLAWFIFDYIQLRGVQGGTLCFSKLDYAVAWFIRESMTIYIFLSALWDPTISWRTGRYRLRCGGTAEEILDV

Row | EC50 [nM] | Compound
1 | 2.5 | O=C(N[C@H]1CCCOC1)c1cn2cc(C(F)(F)F)cc(-c3ccccc3OCC(F)(F)F)c2n1 [Compound 42, (S)-N-(tetrahydro-2H-pyran-3-yl)-8-(2-(2,2,2-trifluoroethoxy)phenyl)-6-(trifluoromethyl)imidazo[1,2-a]pyridine-2-carboxamide]
2 | 2.3 | CC(CO)(NC(=O)c1cn2cccc(-c3ccccc3OCC(F)(F)F)c2n1)C(F)(F)F (single isomer, unassigned) [Compound 9, (R or S)-N-(1,1,1-trifluoro-3-hydroxy-2-methylpropan-2-yl)-8-(2-(2,2,2-trifluoroethoxy)phenyl)imidazo[1,2-a]pyridine-2-carboxamide]
3 | 1.3 | OC(c1cn2cc(Cl)cc(-c3ccccc3OCC(F)(F)F)c2n1)C1CC1 (stereo not drawn) [Compound 65, [6-chloro-8-[2-(2,2,2-trifluoroethoxy)phenyl]imidazo[1,2-a]pyridin-2-yl]-cyclopropyl-methanol]
4 | 0.83 | O=C(N[C@@H]1CNCC[C@H]1F)c1cn2cccc(-c3ccccc3OCC(F)(F)F)c2n1 (relative stereo) [Compound 16, N-(trans-4-fluoropiperidin-3-yl)-8-(2-(2,2,2-trifluoroethoxy)phenyl)imidazo[1,2-a]pyridine-2-carboxamide]
5 | 0.51 | O=C(c1cn2cc(C(F)(F)F)cc(-c3ccccc3OCC(F)(F)F)c2n1)N1CCOC2(COC2)C1 [Compound 51, (2,5-dioxa-8-azaspiro[3.5]nonan-8-yl)(8-(2-(2,2,2-trifluoroethoxy)phenyl)-6-(trifluoromethyl)imidazo[1,2-a]pyridin-2-yl)methanone]
6 | 13 | CC(O)c1cn2cc(Cl)cc(-c3ccccc3OCC(F)(F)F)c2n1 (stereo not drawn) [Compound 64, 1-[6-chloro-8-[2-(2,2,2-trifluoroethoxy)phenyl]imidazo[1,2-a]pyridin-2-yl]ethanol]
7 | 28 | O=C(Nc1ccc[n+]([O-])c1)c1cn2cccc(-c3ccccc3OCC(F)(F)F)c2n1 [Compound 58, 3-(8-(2-(2,2,2-trifluoroethoxy)phenyl)imidazo[1,2-a]pyridine-2-carboxamido)pyridine-1-oxide]
8 | 14 | N#Cc1cc(-c2ccccc2OCC(F)(F)F)c2nc(C(=O)N[C@H]3CC[C@H](O)CC3)cn2c1 [Compound 39, 6-cyano-N-(trans-4-hydroxycyclohexyl)-8-(2-(2,2,2-trifluoroethoxy)phenyl)imidazo[1,2-a]pyridine-2-carboxamide]
9 | 30 | O=C(c1cn2cc(Cl)cc(-c3ccccc3OCC(F)(F)F)c2n1)N1C[C@H]2C(CO)[C@@H]2C1 (stereo partly drawn) [Compound 60, (6-chloro-8-(2-(2,2,2-trifluoroethoxy)phenyl)imidazo[1,2-a]pyridin-2-yl)((1R,5R)-6-(hydroxymethyl)-3-azabicyclo[3.1.0]hexan-3-yl)methanone]
10 | 5.9 | N#C[C@@]1(NC(=O)c2cn3cccc(-c4ccccc4OCC(F)(F)F)c3n2)CCOC1 [Compound 34, (S)-N-(3-cyanotetrahydrofuran-3-yl)-8-(2-(2,2,2-trifluoroethoxy)phenyl)imidazo[1,2-a]pyridine-2-carboxamide]
11 | 1.2 | O=C(NC1CNCCC1(F)F)c1cn2cccc(-c3ccccc3OCC(F)(F)F)c2n1 (racemic) [Compound 17, (R and S)-N-(4,4-difluoropiperidin-3-yl)-8-(2-(2,2,2-trifluoroethoxy)phenyl)imidazo[1,2-a]pyridine-2-carboxamide]
12 | 9.8 | CC(C)(CO)NC(=O)c1cn2cccc(-c3ccccc3OCC(F)(F)F)c2n1 [Compound 1, N-(1-hydroxy-2-methylpropan-2-yl)-8-(2-(2,2,2-trifluoroethoxy)phenyl)imidazo[1,2-a]pyridine-2-carboxamide]
13 | 13 | O=C(NCc1ccccn1)c1cn2cccc(-c3ccccc3OCC(F)(F)F)c2n1 [Compound 52, N-(pyridin-2-ylmethyl)-8-(2-(2,2,2-trifluoroethoxy)phenyl)imidazo[1,2-a]pyridine-2-carboxamide]
14 | 21 | O=C(c1cn2cccc(-c3ccccc3OCC(F)(F)F)c2n1)N1CCOC2(CCOC2)C1 (racemic) [Compound 50, (R and S)-(2,6-dioxa-9-azaspiro[4.5]decan-9-yl)(8-(2-(2,2,2-trifluoroethoxy)phenyl)imidazo[1,2-a]pyridin-2-yl)methanone]
15 | 15 | CC1(C)CN=C(c2cn3cc(Cl)cc(-c4ccccc4OCC(F)(F)F)c3n2)O1 [Compound 69, 2-(6-chloro-8-(2-(2,2,2-trifluoroethoxy)phenyl)imidazo[1,2-a]pyridin-2-yl)-5,5-dimethyl-4,5-dihydrooxazole]
16 | 6 | N#Cc1cnccc1NC(=O)c1cn2cccc(-c3ccccc3OCC(F)(F)F)c2n1 [Compound 59, N-(3-cyanopyridin-4-yl)-8-(2-(2,2,2-trifluoroethoxy)phenyl)imidazo[1,2-a]pyridine-2-carboxamide]
17 | 0.36 | O=C(N[C@H]1CC[C@H](O)CC1)c1cn2cc(Cl)cc(-c3ccccc3OCC(F)(F)F)c2n1 [Compound 24, 6-chloro-N-(trans-4-hydroxycyclohexyl)-8-(2-(2,2,2-trifluoroethoxy)phenyl)imidazo[1,2-a]pyridine-2-carboxamide]
18 | 3 | CN(CCN1CCCC1)C(=O)c1cn2cccc(-c3ccccc3OCC(F)(F)F)c2n1 [Compound 54, N-methyl-N-(2-(pyrrolidin-1-yl)ethyl)-8-(2-(2,2,2-trifluoroethoxy)phenyl)imidazo[1,2-a]pyridine-2-carboxamide]
19 | 30 | CC1(C)OCC1NC(=O)c1cn2cccc(-c3ccccc3OCC(F)(F)F)c2n1 (stereo not drawn) [Compound 53, N-(2,2-dimethyloxetan-3-yl)-8-(2-(2,2,2-trifluoroethoxy)phenyl)imidazo[1,2-a]pyridine-2-carboxamide]
20 | 7.2 | CC(CO)(NC(=O)c1cn2cccc(-c3ccccc3OCC(F)(F)F)c2n1)C(F)(F)F (single isomer, unassigned) [Compound 10, (R or S)-N-(1,1,1-trifluoro-3-hydroxy-2-methylpropan-2-yl)-8-(2-(2,2,2-trifluoroethoxy)phenyl)imidazo[1,2-a]pyridine-2-carboxamide]
21 | 2.3 | O=C(NC12CCC(CO)(CC1)CC2)c1cn2cccc(-c3ccccc3OCC(F)(F)F)c2n1 [Compound 18, N-(4-(hydroxymethyl)bicyclo[2.2.2]octan-1-yl)-8-(2-(2,2,2-trifluoroethoxy)phenyl)imidazo[1,2-a]pyridine-2-carboxamide]
22 | 10 | OC(c1cn2cc(F)cc(-c3ccccc3OCC(F)(F)F)c2n1)C1CCOCC1 (stereo not drawn) [Compound 68, (6-fluoro-8-(2-(2,2,2-trifluoroethoxy)phenyl)imidazo[1,2-a]pyridin-2-yl)(tetrahydro-2H-pyran-4-yl)methanol]
23 | 0.97 | CC1(NC(=O)c2cn3cc(Cl)cc(-c4ccccc4OCC(F)(F)F)c3n2)CCOC1 (racemic) [Compound 14, (R and S)-6-chloro-N-(3-methyltetrahydrofuran-3-yl)-8-(2-(2,2,2-trifluoroethoxy)phenyl)imidazo[1,2-a]pyridine-2-carboxamide]
24 | 11 | O=C(Nc1ccc2cccc(-c3ccccc3OCC(F)(F)F)c2n1)[C@H]1C[C@@H](O)C1 [Compound 81, cis-3-hydroxy-N-(8-(2-(2,2,2-trifluoroethoxy)phenyl)quinolin-2-yl)cyclobutane-1-carboxamide]

Reference: patent US20240018140A1, “MODIFIED IMIDAZOPYRIDINES AS GLUCOSYLCERAMIDE SYNTHASE INHIBITORS” (Merck Sharp & Dohme LLC, priority 2020, published 2024)
